Measurements reported in article PMC9454457 (Journal of Nuclear Medicine, 2022).
Where two headings read alike, the source gives them in different places.

Experiments:
[1] = In vitro metabolic stability in human plasma; format: in vitro ADME; conditions: 37°C, 72 ± 2 h, n = 4
Description: Metabolic stability in vitro was determined through a procedure published by Linder et al. that was slightly modified ([16]). Immediately after labeling, 200 μL of human plasma were added and the mixture was incubated at 37°C for 72 ± 2 h. Proteins were precipitated by treatment with ice-cold EtOH (150 μL) and ice-cold MeCN (450 μL), followed by centrifugation (13,000 rpm, 20 min). The supernatants were decanted and further centrifuged (13,000 rpm, 10 min) using a Costar Spin-X (Corning) centrifuge tube filter (0.45 μm). The filtrated plasma samples were analyzed using radio–RP-HPLC.
(§1) FIGURE 2. Preclinical data of ^nat/177Lu-RM2 (red), ^nat/177Lu-NeoBOMB1 (gray), ^nat/177Lu-AMTG (green), and ^nat/177Lu-AMTG2 (blue). (A) Affinity data on PC-3 and T-47D cells (1.5 × 10^5 cells/mL/well) using 3-^125I-D-Tyr^6-MJ9 (0.2 nM/well) as radiolabeled reference (2 h, room temperature, Hanks’ balanced salt solution plus 1% bovine serum albumin [v/v]). (B) GRPR-mediated internalization (0.25 pmol/well) on PC-3 cells as percentage of applied activity (incubation at 37°C for 1 h, Dulbecco modified Eagle medium/F-12 plus 5% bovine serum albumin [v/v], 1.5 × 10^5 cells/mL/well). Data were corrected for nonspecific binding (10^−3 M ^natLu-RM2). (C) Lipophilicity at pH 7.4 (logD7.4). (D) Metabolic stability in vitro in human plasma (left) (37°C, 72 ± 2 h; n = 4), and metabolic stability in vivo in murine plasma (middle) and murine urine (right) at 30 min after injection (n = 3). Data are expressed as mean ± SD.

[2] = In vivo metabolic stability in murine plasma and urine; parameters: species or system CB17-SCID mice; conditions: 30 min after injection, n = 3
Description: Approximately 30–40 MBq (1 nmol, 150 μL) of the ^177Lu-labeled compounds were injected into the tail vein of anesthetized CB17-SCID mice (n = 3). After euthanasia at 30 min after injection, blood and urine samples were collected. Blood proteins were precipitated by treatment with ice-cold MeCN (v/v = 1/1), followed by centrifugation (13,000 rpm, 20 min). The supernatants were decanted and further centrifuged (13,000 rpm, 10 min) using a Costar Spin-X centrifuge tube filter (0.45 μm). The filtrated plasma samples and the urine samples were analyzed using radio–RP-HPLC.
as §1

[3] = Biodistribution in PC-3 tumor-bearing CB17-SCID mice; format: in vivo; conditions: 24 h after injection; for tissue uptake at 24 h: CB17-SCID, mouse, intravenous, total radioactivity
Description: A detailed description of tumor inoculation is provided in the supplemental materials. Approximately 2–5 MBq (100 pmol, 150 μL) of the ^177Lu-labeled GRPR ligands were injected into the tail vein of anesthetized (2% isoflurane) PC-3 tumor–bearing mice (biodistribution, n = 4; imaging, n = 1).
For biodistribution studies, organs were removed, weighed, and measured in a γ-counter (Perkin Elmer) after euthanasia at 24 h after injection.
For all competition studies, 3.62 mg/kg (40 nmol) of ^natLu-RM2 (10^−3 M in phosphate-buffered saline) were coadministered.

[4] = adrenal, 100 pmol, 100 pmol, n = 4, read-out: Biodistribution, Adrenal
[5] = adrenal, 3.62 mg/kg, coinjection of natLu-RM2 3.62 mg/kg, n = 3, read-out: Biodistribution, Adrenal, competition study
[6] = blood, 100 pmol, 100 pmol, n = 4, read-out: Biodistribution, Blood
[7] = blood, 3.62 mg/kg, coinjection of natLu-RM2 3.62 mg/kg, n = 3, read-out: Biodistribution, Blood, competition study
[8] = bone, 100 pmol, 100 pmol, n = 4, read-out: Biodistribution, Bone
[9] = bone, 3.62 mg/kg, coinjection of natLu-RM2 3.62 mg/kg, n = 3, read-out: Biodistribution, Bone, competition study
[10] = heart, 100 pmol, 100 pmol, n = 4, read-out: Biodistribution, Heart
[11] = heart, 3.62 mg/kg, coinjection of natLu-RM2 3.62 mg/kg, n = 3, read-out: Biodistribution, Heart, competition study
[12] = intestine, 100 pmol, 100 pmol, n = 4, read-out: Biodistribution, Intestine
[13] = intestine, 3.62 mg/kg, coinjection of natLu-RM2 3.62 mg/kg, n = 3, read-out: Biodistribution, Intestine, competition study
[14] = kidney, 100 pmol, 100 pmol, n = 4, read-out: Biodistribution, Kidney
[15] = kidney, 3.62 mg/kg, coinjection of natLu-RM2 3.62 mg/kg, n = 3, read-out: Biodistribution, Kidney, competition study
[16] = liver, 100 pmol, 100 pmol, n = 4, read-out: Biodistribution, Liver
[17] = liver, 3.62 mg/kg, coinjection of natLu-RM2 3.62 mg/kg, n = 3, read-out: Biodistribution, Liver, competition study
[18] = lung, 100 pmol, 100 pmol, n = 4, read-out: Biodistribution, Lung
[19] = lung, 3.62 mg/kg, coinjection of natLu-RM2 3.62 mg/kg, n = 3, read-out: Biodistribution, Lung, competition study
[20] = muscle, 100 pmol, 100 pmol, n = 4, read-out: Biodistribution, Muscle
[21] = muscle, 3.62 mg/kg, coinjection of natLu-RM2 3.62 mg/kg, n = 3, read-out: Biodistribution, Muscle, competition study
[22] = pancreas, 100 pmol, 100 pmol, n = 4, read-out: Biodistribution, Pancreas
[23] = pancreas, 3.62 mg/kg, coinjection of natLu-RM2 3.62 mg/kg, n = 3, read-out: Biodistribution, Pancreas, competition study
[24] = spleen, 100 pmol, 100 pmol, n = 4, read-out: Biodistribution, Spleen
[25] = spleen, 3.62 mg/kg, coinjection of natLu-RM2 3.62 mg/kg, n = 3, read-out: Biodistribution, Spleen, competition study
[26] = stomach, 100 pmol, 100 pmol, n = 4, read-out: Biodistribution, Stomach
[27] = stomach, 3.62 mg/kg, coinjection of natLu-RM2 3.62 mg/kg, n = 3, read-out: Biodistribution, Stomach, competition study
[28] = tumor (PC-3), 100 pmol, PC-3 tumor, 100 pmol, n = 4, read-out: Biodistribution, Tumor
[29] = tumor (PC-3), 3.62 mg/kg, PC-3 tumor, coinjection of natLu-RM2 3.62 mg/kg, n = 3, read-out: Biodistribution, Tumor, competition study

Compound	Intact compound in human plasma in vitro [1]	Intact tracer in murine plasma in vivo [2]	Intact tracer in murine urine in vivo [2]	tissue uptake at 24 h [3, 4] [%ID/g]	tissue uptake at 24 h [3, 5] [%ID/g]	tissue uptake at 24 h [3, 6] [%ID/g]	tissue uptake at 24 h [3, 7] [%ID/g]	tissue uptake at 24 h [3, 8] [%ID/g]	tissue uptake at 24 h [3, 9] [%ID/g]	tissue uptake at 24 h [3, 10] [%ID/g]	tissue uptake at 24 h [3, 11] [%ID/g]	tissue uptake at 24 h [3, 12] [%ID/g]	tissue uptake at 24 h [3, 13] [%ID/g]	tissue uptake at 24 h [3, 14] [%ID/g]	tissue uptake at 24 h [3, 15] [%ID/g]	tissue uptake at 24 h [3, 16] [%ID/g]	tissue uptake at 24 h [3, 17] [%ID/g]	tissue uptake at 24 h [3, 18] [%ID/g]	tissue uptake at 24 h [3, 19] [%ID/g]	tissue uptake at 24 h [3, 20] [%ID/g]	further results
CC(C)C[C@H](NC(=O)C[C@H](O)[C@H](CC(C)C)NC(=O)[C@H](Cc1c[nH]cn1)NC(=O)CNC(=O)[C@@H](NC(=O)[C@H](C)NC(=O)[C@](C)(Cc1c[nH]c2ccccc12)NC(=O)[C@H](CCC(N)=O)NC(=O)[C@@H](Cc1ccccc1)NC(=O)CN1CCC(NC(=O)CCC(C(=O)O)N2CCN(CC(=O)O)CCN(CC(=O)O)CCN(CC(=O)O)CC2)CC1)C(C)C)C(N)=O (stereo partly drawn) [^177Lu-AMTG2, ^177Lu-DOTAGA-α-Me-L-Trp^8-RM2, metal not drawn]	66.2% ± 5.1%	77.6% ± 3.1%	61.6% ± 1.6%	0.26 ± 0.14	0.03 ± 0.02	0.011	0.002 ± 0.001	0.22 ± 0.05	0.02 ± 0.01	0.03 ± 0.02	0.02 ± 0.01	0.3 ± 0.04	0.34 ± 0.35	1.2 to 1.9	1.63 ± 0.44	0.32 ± 0.14	0.74 ± 0.44	0.05 ± 0.01	1.18 ± 1.49	0.003 ± 0.003	tissue uptake at 24 h [3, 21]: 0.003 ± 0.002 %ID/g; tissue uptake at 24 h [3, 22]: 0.95 ± 0.14 %ID/g; tissue uptake at 24 h [3, 23]: 0.07 ± 0.01 %ID/g; tissue uptake at 24 h [3, 24]: 0.15 ± 0.07 %ID/g; tissue uptake at 24 h [3, 25]: 1.06 ± 1.08 %ID/g; tissue uptake at 24 h [3, 26]: 0.12 ± 0.03 %ID/g; tissue uptake at 24 h [3, 27]: 0.04 ± 0.01 %ID/g; tissue uptake at 24 h [3, 28]: 7.97 ± 1.34 %ID/g; tissue uptake at 24 h [3, 29]: 0.36 ± 0.25 %ID/g
CC(C)C[C@H](NC(=O)C[C@H](O)[C@H](CC(C)C)NC(=O)[C@H](Cc1c[nH]cn1)NC(=O)CNC(=O)[C@@H](NC(=O)[C@H](C)NC(=O)[C@](C)(Cc1c[nH]c2ccccc12)NC(=O)[C@H](CCC(N)=O)NC(=O)[C@@H](Cc1ccccc1)NC(=O)CN1CCC(NC(=O)CN2CCN(CC(=O)O)CCN(CC(=O)O)CCN(CC(=O)O)CC2)CC1)C(C)C)C(N)=O [^177Lu-AMTG, ^177Lu-α-Me-L-Trp^8-RM2, metal not drawn]	77.7% ± 8.7%	92.9% ± 0.7%	68.2% ± 3.1%	0.46 ± 0.22	0.09 ± 0.07	0.004 ± 0.001	0.003	0.05 ± 0.02	0.05 ± 0.03	0.02	0.02 ± 0.01	0.2 ± 0.1	0.27 ± 0.21	1.2 to 1.9	1.17 ± 0.26	0.14 ± 0.03	1.4 ± 0.86	0.04 ± 0.01	0.27 ± 0.15	0.005 ± 0.003	Higher activity level in PC-3 tumor than for 177Lu-RM2 [3]: 35%; tissue uptake at 24 h [3, 21]: 0.003 ± 0.002 %ID/g; tissue uptake at 24 h [3, 22]: 0.56 ± 0.3 %ID/g; tissue uptake at 24 h [3, 23]: 0.05 ± 0.03 %ID/g; tissue uptake at 24 h [3, 24]: 0.1 ± 0.02 %ID/g; tissue uptake at 24 h [3, 25]: 2.97 ± 2.01 %ID/g; tissue uptake at 24 h [3, 26]: 0.1 ± 0.04 %ID/g; tissue uptake at 24 h [3, 27]: 0.04 ± 0.02 %ID/g; tissue uptake at 24 h [3, 28]: 11.5 %ID/g; tissue uptake at 24 h [3, 29]: 0.33 ± 0.2 %ID/g
